According to patent US20240050449A1, “Use of Acetyltanshinone IIA in Preparation of Medicament for Treating Lung Cancer and Medicament for Treating Lung Cancer” (UNIVERSITY OF MACAU, priority 2022, published 2024):

Legend:
A549 and H1650 cells = test: Protein synthesis rate (click-iT HPG Alexa Fluor 594 Protein Synthesis Assay Kit); assay type: cell-based; conditions: 2 μM, 48 h
Description: In FIG. 3 (A) is protein levels of p-Akt, Akt, p-mTOR, mTOR, p-p70S6K, p70S6K, p-S6RP, and S6RP determined by Western blot analysis for A549, H358, H1975, and H1650 cells treated with ATA (1 or 2 μM) for 48 h. (B) is A549 and H1650 cells treated with ATA (1 or 2 μM) or the protein synthesis inhibitor […] (CHX, 35 μM), respectively, for 48 h. The rate of protein synthesis was determined using the click-iT™ HPG Alexa Fluor™ 594 Protein Synthesis Assay Kit. The intensity of Texas Red fluorescence in the stained image represents the rate of protein synthesis. Quantification of the rate of protein synthesis is shown. ****P<0.0001 was based on a one-way analysis of variance followed by Tukey's multiple comparison test. Scale bar, 50 μm. […] Protein levels of p-p70S6K. p70S6K. p-S6RP, and S6RP were determined by Western blot analysis. […] The rate of protein synthesis was determined using the click-iT™ HPG Alexa Fluor™ 594 Protein Synthesis Assay Kit. The intensity of Texas Red fluorescence in the stained image represents the rate of protein synthesis. Quantification of the rate of protein synthesis is shown. *P<0.05 and **P<0.01 were based on a one-way analysis of variance followed by Tukey's multiple comparison test. […] Protein levels of p70S6K. p-p70S6K, S6RP, and p-S6RP were determined by Western blot analysis. […] Data are expressed as the mean±SD of three independent experiments.

p70S6K = target: T1, p70S6K (Homo sapiens, UniProt P23443); test: Western blot, p70S6K protein levels in drug-resistant NSCLC cells; assay type: cell-based; conditions: A549 and H1650 cells, 2 μM, 48 h
T1 construct: endogenous in cells; host or cells: A549, H358, H1975, H1650 for the Western blots
Description: (§1) Cells were washed once with PBS and frozen in RIPA lysis buffer containing protease and phosphatase inhibitors (Sigma-Aldrich) for 30 min. After sonication and centrifugation, the total protein concentration was determined by protein assay using Bio-Rad concentrated dye reagent (Bio-Rad). Equal amounts of protein ([…]) from each sample were separated by SDS-PAGE and electrotransferred to nitrocellulose membranes (GE Healthcare). Detection was performed on the membrane with a 1:1000 dilution of specific primary antibody followed by incubation with a 1:2000 dilution of the HRP conjugated secondary antibody. Finally, immunoreactivity is detected with a chemiluminescent substrate (Clarity Western ECL substrate; Bio-Rad). EGFR (#4267S), MET (#8198S), p-Akt (#9271L), akt (#9272S), p-mTOR (#5536S), mTOR (#2983S), p-p70S6K (#9234S), p70S6K (#2708S), p-S6RP (#4857S), S6RP (#2217S), p-4E-BP1 (#9455S) antibodies. 4E-BP1 (#9644S), p53 (#2527S), p21 waf1/Cip1 (#2947S), survivin (#2808S), cyclin B1 (#12231S), cyclin D3 (#2936S) and GAPDH (#2118S) were purchased from Cell Signaling Technology. Aurora A (#ab13824) and PLK1 (#ab189139) antibodies were from Abcam.

[1] = Body weight, deaths and toxicity in the xenograft study; conditions: 25 mg/kg intraperitoneally every 3 days for 31 days
Description: (§2) Cell line xenograft experiments were performed in 6-week-old female nude mice, 4×10^6 A549 cells were mixed 1:1 with matrigel-basement membrane matrix (Corning) and injected subcutaneously into nude mice. Tumors were allowed to grow to around […] and mice were randomly selected to receive treatment with ATA (25 mg/kg) or Erlotinib (25 mg/kg) intraperitoneally every 3 days for 31 days. ATA was formulated with 25% ethanol, 60% PEG300 (Sigma-Aldrich), and 15% Tween 80 (Sigma-Aldrich). Erlotinib was formulated in 5% DMSO, 30% PEG300, 5% Tween 80 and 60% H2O. Mouse body weight and tumor volume were measured every 3 days by a scale and caliper. Tumor volume (mm^3) was calculated using the formula. π/6×length (mm)×[width (mm)]^2. At least 6 mice in the control and treatment groups were evaluated during the study. All mice were sacrificed after 31 days of drug treatment, tumors were collected, and tumor weights were recorded. All animal studies were conducted in accordance with the requirements of the Animal Research Ethics Committee of Macao University and in compliance with all relevant ethical requirements.
(§3) To determine if ATA could also produce the same effect in vivo, this example injected A549 cells subcutaneously into nude mice to form tumor xenografts. Mice were randomly assigned to three groups. When the size of each tumor increased to a volume of approximately 100 mm^3, mice were injected intraperitoneally with vehicle control, ATA (25 mg/kg), or Erlotinib (25 mg/kg) every 3 days for 31 days. The tumor size and body weight of each mouse were measured every 3 days until the end of the animal experiment on day 31.

[2] = test system: A549 cell-derived xenograft tumors; test: Mouse xenograft study; assay type: in vivo, nude mice; conditions: 25 mg/kg intraperitoneally every 3 days, day 31
Description: as §2, §3

H1650 cells [3] = test: Spheroid formation experiment, H1650 cells; conditions: 2 μM, 0 to 8 days
H358 cells = test: MTT cell viability assay, H358 cells; assay type: cell-based; conditions: Homo sapiens, NCI-H358, MTT, 72 h
Description: (§4) Cells were seeded at a density of 3×10^3 per well in 96-well plates, allowed to attach overnight, and treated with various concentrations of agent. After 72 h of treatment, 10 μL of MTT solution (5 mg/mL) was added to each well and cultured in the plate for 4 h. The crystallized formazan was dissolved in 100 μL of 10% (w/v) SDS and 0.01 mol/L HCl solution for 24 h, and then the value was read by spectrophotometry at 595 nm using a microplate reader.

H1975 cells [4] = test: MTT cell viability assay, H1975 cells; assay type: cell-based; conditions: Homo sapiens, NCI-H1975, MTT, 72 h
Description: as §4

H1975 cells [5] = test: Spheroid formation experiment, H1975 cells; assay type: cell-based; conditions: 2 μM, 0 to 8 days
Description: The density of H1975 was 500 cells per well and the density of H1650 was 1000 cells per well in an ultra-low adhesion round bottom 96 well plate (Corning, #7007).

A549 cells [6] = test: MTT cell viability assay, A549 cells; assay type: cell-based; conditions: Homo sapiens, MTT, 72 h
Description: as §4

[7] = test system: drug-resistant NSCLC cells (A549, H358, H1975, H1650); test: MTT assay, summary over all four cell lines; assay type: cell-based; conditions: A549, H358, H1975, H1650; MTT, 72 h; read-out: IC50 values, range over the four cell lines
Description: as §4

EGFR = test: Western blot, EGFR protein levels in drug-resistant NSCLC cells; assay type: cell-based; conditions: A549 and H1650 cells, 2 μM, 48 h
Description: as §1, with “EGFR (#4267S), MET (#8198S), p-Akt (#9271L), akt (#9272S), p-mTOR (#5536S), mTOR (#2983S), p-p70S6K (#9234S), p70S6K (#2708S), p-S6RP (#4857S), S6RP (#2217S), p-4E-BP1 (#9455S) antibodies. 4E-BP1 (#9644S), p53 (#2527S), p21 waf1/Cip1 (#2947S), survivin (#2808S), cyclin B1 (#12231S), cyclin D3 (#2936S) and GAPDH (#2118S) were purchased from Cell Signaling Technology.” left out

A549 cells [8] = test: Transwell cell migration assay; assay type: cell-based; conditions: 1 μM
Description: (§5) Cell migration and invasion assays were performed in a transwell chamber (Corning, #3422) with a pore size of 8 μm. Cells were treated with different concentrations of ATA and Erlotinib for 48 h, then harvested and resuspended in a serum-free medium. Cells (1×10^4) were added to the upper side of the transwell chamber and fresh medium containing 10% FBS was added to the lower side. Cells were allowed to migrate from the upper side to the lower side of the chamber at 37° C. for 24 h. Membranes from the cell chamber were fixed with 4% paraformaldehyde for 20 min. The cells remaining on the upper side of the membrane were gently removed with a cotton swab and stained with 1% crystal violet for 20 min to stain the cells migrating to the other side of the transwell chamber. The membrane was then cut and fixed on a glass slide. The migrated cells on each slide were imaged with a Leica M165-FC microscope. For the transwell invasion assay, a Matrigel solution (Corning, #356230) was diluted to one-thirtieth with serum-free medium and applied to the upper side of the precoated chamber for 2 h, after the Matrigel had solidified, the cells were added to the upper side of the transwell chamber. The following procedure is identical to the migration assay. Migrated and invaded cells were quantified using ImageJ software.

H1650 cells [9] = test: MTT cell viability assay, H1650 cells; assay type: cell-based; conditions: Homo sapiens, NCI-H1650, MTT, 72 h
Description: as §4

A549 cells [10] = test: Transwell Matrigel invasion assay; assay type: cell-based; conditions: 1 μM
Description: as §5

T1 sequence (P23443 whole entry): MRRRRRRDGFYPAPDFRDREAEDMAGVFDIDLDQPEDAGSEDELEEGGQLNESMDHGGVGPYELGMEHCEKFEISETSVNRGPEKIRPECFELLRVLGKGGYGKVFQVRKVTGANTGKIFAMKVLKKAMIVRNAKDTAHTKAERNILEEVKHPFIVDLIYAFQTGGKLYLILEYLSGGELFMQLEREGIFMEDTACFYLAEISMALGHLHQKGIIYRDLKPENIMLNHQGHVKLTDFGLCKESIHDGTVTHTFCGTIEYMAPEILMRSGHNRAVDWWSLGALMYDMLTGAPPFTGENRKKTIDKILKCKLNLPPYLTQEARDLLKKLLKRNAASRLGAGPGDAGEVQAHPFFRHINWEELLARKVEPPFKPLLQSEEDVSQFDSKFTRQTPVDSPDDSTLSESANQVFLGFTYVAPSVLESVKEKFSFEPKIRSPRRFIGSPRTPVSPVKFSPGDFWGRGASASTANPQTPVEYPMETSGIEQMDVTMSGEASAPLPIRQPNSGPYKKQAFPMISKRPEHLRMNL

Row | SMILES | reduction (inhibition ratio) of protein synthesis (A549 and H1650 cells) | levels of p70S6K (p70S6K) | deaths during the treatment period [1] | weight of nude mice compared between groups [1] | reduction of tumor size compared to the control group [2] [%] | reduction of tumor weight [2] | spheroid growth / sphere size (H1650 cells [3]) | IC50 (H358 cells) [µM] | IC50 (H1975 cells [4]) [µM] | spheroid growth / sphere size (H1975 cells [5]) | IC50 (A549 cells [6]) [µM] | IC50 [7] [µM] | protein levels of EGFR (EGFR) | reduction of migration ability (A549 cells [8]) | IC50 (H1650 cells [9]) [µM] | reduction of invasion ability (A549 cells [10])
1 | CCc1cncnc1N1CCN(Cc2nc3ccc(C(F)(F)F)cc3[nH]2)CC1 [PF-4708671, reference compound] | did not affect | did not decrease |  |  |  |  |  |  |  |  |  |  |  |  |  | 
2 | C#Cc1cccc(Nc2ncnc3cc(OCCOC)c(OCCOC)cc23)c1 [Erlotinib, reference compound] |  |  | no mice died | no difference | 32.5 | did not significantly reduce | less inhibition in H1650 cells than ATA | 21.5 ± 1.47 | 10.6 ± 1.27 | did not decrease but significantly increased | 19.6 ± 0.28 | 10 to 22 | significantly increased | did not | 22.1 ± 0.59 | did not
3 | CO[C@H]1C[C@@H]2CC[C@@H](C)[C@@](O)(O2)C(=O)C(=O)N2CCCC[C@H]2C(=O)O[C@H]([C@H](C)C[C@@H]2CC[C@@H](O)[C@H](OC)C2)CC(=O)[C@H](C)/C=C(\C)[C@@H](O)[C@@H](OC)C(=O)[C@H](C)C[C@H](C)/C=C/C=C/C=C/1C [Rapamycin, rapamycin] | 25-28% |  |  |  |  |  |  |  |  |  |  |  |  |  |  | 
